Experimental findings from article PMC11678869, “Functional Role of Odorant-Binding Proteins in Response to Sex Pheromone Component Z8-14:Ac in Grapholita molesta (Busck)” (Insects, 2024) are described below.

As usually defined, the IC50 is the midpoint of a concentration-inhibition curve. Low readings indicate higher potency, high ones lower potency. One may read the Ki as a dissociation constant, usually derived from enzyme kinetics or from competition with a known ligand.

Each structure is given as a SMILES string.

Test [1] concerns PFM male antennae. The experiment in a line: Electroantennogram (EAG) analysis. The settings on record: 20, 200 and 2000 μg doses. Also on record: species or system Grapholita funebrana. The protocol:
(§1) Electroantennogram (EAG) equipment (Syntech, Hilversum, The Netherlands) was used to record the antennal responses of the OFM and PFM adults to Z8-12:Ac, E8-12:Ac, Z8-12:OH, Z8-14:Ac, and Z10-14:Ac. These sex pheromone compounds were diluted with liquid paraffin to prepare a stimulus solution of 100 μg/μL, which was subsequently diluted to 10 and 1 μg/μL. Antenna from 3-day-old OFM and 2- to 4-day-old PFM virgin males were excised at its base, with the distal part of the terminal segment being removed. Then, the treated antenna was attached to electrode holders with SpectraR360 conducting gel. A stimulus controller (model CS-55, Syntegon Technology, Waiblingen, Germany) continuously supplied a humidified air stream at a rate of 500 mL/min. Then, 20 μL of each stimulus solution was adsorbed onto a twice-folded filter paper strip (0.5 cm × 4 cm) placed on the wide section of a l mL pipette tip, which served as an odorant cartridge. Vapor stimuli were delivered by an air compressor into the constant air stream described above, flowing in a copper delivery tube (i.d. 8 mm) with the outlet positioned approximately 1 cm from the antenna. The EAG amplitude tests of the OFM and PFM males’ responses to sex pheromones started with solvent control stimuli (20 μL of liquid paraffin), followed by stimulation with 20, 200, and 2000 μg doses (20 μL of 1.0, 10.0, and 100.0 μg/μL of liquid paraffin solutions, respectively) of stimulus in sequence. The solvent control was performed at the end of the run. To control for variations among antennae, each sample was tested on 10 antennae of different males. The EAG signals and data were analyzed using EAG 2000 software (Syntech, Hilversum, The Netherlands). The corrected EAG amplitude value = absolute EAG amplitude value − (EAGck1 + EAGck2)/2, where EAGck1 and EAGck2 represent the absolute EAG amplitude values of the solvent control before and after measuring each stimulus, respectively. The relative EAG response of the OFM and PFM males to the same doses of sex pheromones were subjected to an analysis of independent sample t-test (p = 0.05) using SPSS version 23.0 (IBM).

In test [2] the target is GmolPBP2 mutant I94A (Grapholita molesta, UniProt A0A059VC28, I119A). The experiment in a line: Fluorescence competitive binding assay, GmolPBP2 mutant. The protocol: (§2) The binding affinities of three rGmolPBPs and two rGmolGOBPs for Z8-14:Ac were determined using an F-2700 fluorescence spectrophotometer (Hitachi, Tokyo, Japan). First, we measured the dissociation constants (Kd) of the rGmolPBPs (or rGmolGOBPs) binding to 1−NPN. Each protein was diluted to 2 μM with 20 mM Tris-HCl buffer (pH 7.4); then, 2 mL of the protein solution was transferred to a quartz cuvette and titrated with 1 mM 1−NPN to a final concentration of 1–18 μM. As the doses of 1−NPN were increased, the increasing amplitude of the fluorescence intensity decreased, and finally, the binding of the protein to 1−NPN reached saturation. The Kd values were calculated using the nonlinear regression method and the Scatchard equation. Second, we measured the inhibitory constant (Ki) of Z8-14:Ac’s competitive binding with each rGmolPBP (or rGmolGOBP) from the protein/1−NPN complex. The initial fluorescence intensity values were measured after a 2 min reaction in 2 mL solution of 20 mM Tris-HCl (pH 7.4) containing 2 µM rGmolPBP (or rGmolGOBP) protein and 2 µM 1−NPN. Then, the solution was titrated with aliquots of 1 mM Z8-14:Ac to obtain final concentrations in the range of 1–14 µM, and the fluorescence intensity value of each reaction was recorded. The Ki values were calculated using the following equation: Ki = [IC50]/(1 + [1 − NPN]/Kd) where IC50 is the concentration of Z8-14:Ac when half of the initial fluorescence intensity value of the rGmolPBP (or GmolGOBP)/1−NPN complex is replaced, [1 − NPN] represents the concentration of free 1−NPN, and Kd is the dissociation constant of the rGmolPBP (or GmolGOBP)/1−NPN complex.
Sequence of GmolPBP2 mutant I94A (A0A059VC28 entry or part of it I119A): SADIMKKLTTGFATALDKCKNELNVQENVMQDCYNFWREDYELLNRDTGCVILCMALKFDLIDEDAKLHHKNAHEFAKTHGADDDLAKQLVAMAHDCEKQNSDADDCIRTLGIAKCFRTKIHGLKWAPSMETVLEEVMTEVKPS
(§3) Five amino acids—Phe12, Leu68, Ile94, Arg109, and Ile113—were identified as having lower binding free energies for GmolPBP2 interaction with Z8-14:Ac. To assess their role in binding, these residues were individually mutated to alanine using site-directed mutagenesis. Primers for mutagenesis were designed following the protocols recommended by the Fast Mutagenesis System (TransGen Biotech, Beijing, China) (Table S1). These mutations were introduced into the pET-28a(+)–GmolPBP2 plasmid using a Fast Mutagenesis System kit ([…]) and site-directed mutagenesis primers generating the mutants F12A, L68A, I94A, R109A, and I113A, respectively. Each plasmid was verified by DNA sequencing to confirm the presence of the desired mutation. Expression and purification of the mutated proteins followed the same protocols used for the wild-type GmolPBP2. The binding affinities of the five mutants for Z8-14:Ac were determined via fluorescence competitive binding assays. An increase in Ki values for the mutants relative to the wild-type GmolPBP2 would indicate that the corresponding amino acid residues may be crucial for binding to Z8-14:Ac.

Test [3] concerns the target GmolPBP2 mutant F12A (Grapholita molesta, UniProt A0A059VC28, F37A). Described as above. The protocol:
as §2, §3

Test [4] has as its target GmolPBP2 mutant I113A (Grapholita molesta, UniProt A0A059VC28, I138A). The test is described as above. The protocol:
as §2, §3

The target of test [5] is GmolPBP2 mutant L68A (Grapholita molesta, UniProt A0A059VC28, L93A). The description is as above. The protocol: as §2, §3
Sequence of GmolPBP2 mutant L68A (A0A059VC28 entry or part of it L93A): as the sequence (A0A059VC28 entry or part of it I119A) above, with L68A, A94I counted along it
Test [6] has as its target GmolPBP2 mutant R109A (Grapholita molesta, UniProt A0A059VC28, R134A). Described as above. The protocol:
as §2, §3

The test system of test [7] is OFM male antennae. Kind of test: Electroantennogram (EAG) analysis. Details: species or system Grapholita molesta. The protocol: as §1

Sequence of GmolPBP2 mutant R109A (A0A059VC28 entry or part of it R134A): as the sequence (A0A059VC28 entry or part of it I119A) above, with A94I, R109A counted along it
Sequence of GmolPBP2 mutant I113A (A0A059VC28 entry or part of it I138A): as the sequence (A0A059VC28 entry or part of it I119A) above, with A94I, I113A counted along it
Sequence of GmolPBP2 mutant F12A (A0A059VC28 entry or part of it F37A): as the sequence (A0A059VC28 entry or part of it I119A) above, with F12A, A94I counted along it

As for `CCCCC/C=C\CCCCCCCOC(C)=O` [Z8-14:Ac, (Z)-8-tetradecenyl acetate], the “EAG response of PFM males” value in test [1] is “moderate EAG response”. The IC50 in test [2] is 1082 ± 8 nM; in test [3] it was over 14000 nM; in test [4], 980 ± 38 nM; in test [5], 1130 ± 26 nM; in test [6], 1260 ± 29 nM. For the same compound, the inhibition constant Ki in test [2] was 564 ± 4 nM; in test [3], over 14000 nM; in test [4], 520 ± 20 nM; in test [5] it was 589 ± 7 nM; in test [6], 655 ± 15 nM. Besides, the “binding affinity relative to wild-type GmolPBP2” value in test [2] (mutant I94A) is “binding affinities comparable to the wild-type”; in test [3] (mutant F12A) it was “lost its affinity”; in test [4] (mutant I113A), “binding affinities comparable to the wild-type”; in test [5] (mutant L68A), “binding affinities comparable to the wild-type”; in test [6] (mutant R109A), “did not significantly affect the binding affinity”. The “EAG values of OFM males compared with PFM males” value in test [7] (20, 200 and 2000 μg) is given as “significantly higher than those of the PFM males”. In addition, the “EAG response of OFM males” value in test [7] (20, 200 and 2000 μg doses) was “moderate EAG response”.
